Source: US10196369B2, “Spirocyclic EBI2 modulators” (Sanford Burnham Prebys Medical Discovery Institute, priority 2013, dated 2019)

biological target: EBI2 (Homo sapiens, UniProt P32249); assay: Cell-based luminescent assay of EBI2 modulation (7a,25-OHC stimulated); conditions: 7a,25-OHC final assay concentration 80 nM, 60 minute incubation
Procedure: To assess EBI2 modulation, the compounds described herein were assayed in the following cell-based luminescent assay:
1) Plated 600 cells/well in 4 μL of assay media into columns 1-48 of a 1536-well assay plate, using a liquid dispenser.
2) Centrifuged plates at 1000 rpm for 1 minute and covered with lids.
3) Incubated overnight at 37° C., 100% relative humidity, 5% CO2.
1) Centrifuged compound plates containing compounds described herein at 500 rpm for 1 minute.
2) Added compounds into assay plate col 5-48 to final concentration 4-5 uM. Added matching amount of DMSO to positive and negative control wells in columns 1-4.
3) Dispensed 2 uL/well of assay media to columns 1-2 for the positive control wells.
4) Added 2 uL/well of 400 nM 7a,25-OHC (final assay concentration=80 nM) in assay media to columns 3-48 for the negative control and test compound wells.
5) Centrifuged plates at 1000 rpm for 1 minute and re-lid plates.
6) Incubated plates at 37° C., 100% relative humidity, 5% CO2 for 60 minutes.
7) Following 60 minute incubation, delivered 2.5 uL of Detection Reagent solution to each assay plate (Columns 1-48) using a liquid handler.
8) Centrifuged plates at 2000 rpm for 2 minutes and re-lid plates.
9) Incubated plates for 60 minutes at 25 degrees in the dark.
10) Read plates using the Viewlux, Envision or other suitable plate reader using a luminescence detection.
The experimental values were normalized by the difference between values from neutral and stimulator control wells in each plate. Then normalized data was corrected to remove systematic plate patterns due to artifacts such as dispensing tip issues etc.

Chain of EBI2 (P32249 whole entry): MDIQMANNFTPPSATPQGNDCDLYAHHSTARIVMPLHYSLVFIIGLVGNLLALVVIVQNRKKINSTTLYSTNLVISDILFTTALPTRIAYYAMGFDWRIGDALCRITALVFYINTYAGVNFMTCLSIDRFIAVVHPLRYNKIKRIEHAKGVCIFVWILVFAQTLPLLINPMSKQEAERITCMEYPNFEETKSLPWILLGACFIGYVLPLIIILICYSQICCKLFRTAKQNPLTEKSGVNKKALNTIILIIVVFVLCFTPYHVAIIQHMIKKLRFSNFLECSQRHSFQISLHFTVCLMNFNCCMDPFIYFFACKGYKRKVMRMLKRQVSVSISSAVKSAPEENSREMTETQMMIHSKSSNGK

First: O=C(c1ccc(C(F)(F)F)c(F)c1)N1CCC2(CC1)CCN(C(=O)c1cc3cc(Cl)ccc3[nH]1)CC2 [Compound C100, 5-chloroindol-2-yl 9-{[3-fluoro-4-(trifluoromethyl)phenyl]carbonyl}-3,9-diazaspiro[5.5]undec-3-yl ketone]
Second: O=C(c1cc2cc(Cl)ccc2[nH]1)N1CCC2(CC1)CN(Cc1ccc(C(F)(F)F)c(F)c1)C2 [Compound C14, 5-chloroindol-2-yl 2-{[3-fluoro-4-(trifluoromethyl)phenyl]methyl}-2,7-diazaspiro[3.5]non-7-yl ketone]
The IC50 of the first is lower: < 0.1 µM for the first, 0.1 to 0.5 µM for the second.

`O=C(/C=C/c1ccc(Br)cc1)N1CC2(CCN(C(=O)c3cc(F)cc(F)c3)CC2)C1` [Compound C44, (2E)-1-{7-[(3,5-difluorophenyl)carbonyl]-2,7-diazaspiro[3.5]non-2-yl}-3-(4-bromophenyl)prop-2-en-1-one] and `O=C(/C=C/c1ccc(Br)cc1)N1CC2(CCN(C(=O)c3ccc(C(F)(F)F)cc3)CC2)C1` [Compound C21, (2E)-3-(4-bromophenyl)-1-(7-{[4-(trifluoromethyl)phenyl]carbonyl}-2,7-diazaspiro[3.5]non-2-yl)prop-2-en-1-one] cannot be ordered by IC50: < 0.1 µM for the first, < 0.1 µM for the second.

`O=C(/C=C/c1ccc(Cl)c(Cl)c1)N1CC2(CCN(C(=O)c3ccc(F)cc3)CC2)C1` [Compound C28, (2E)-3-(3,4-dichlorophenyl)-1-{7-[(4-fluorophenyl)carbonyl]-2,7-diazaspiro[3.5]non-2-yl}prop-2-en-1-one] and `O=C(/C=C/c1ccc(Cl)c(Cl)c1)N1CC2(CCN(C(=O)c3ccc(Cl)cc3)CC2)C1` [Compound C29, (2E)-3-(3,4-dichlorophenyl)-1-{7-[(4-chlorophenyl)carbonyl]-2,7-diazaspiro[3.5]non-2-yl}prop-2-en-1-one] cannot be ordered by IC50: < 0.1 µM for the first, < 0.1 µM for the second.

`O=C(C#Cc1ccc2c(c1)OCO2)N1CCC2(CC1)CN(C(=O)c1ccc(Cl)cc1)C2` [Compound C98, 3-(2H-benzo[3,4-d]1,3-dioxolen-5-yl)-1-{2-[(4-chlorophenyl)carbonyl]-2,7-diazaspiro[3.5]non-7-yl}prop-2-yn-1-one] and `O=C(C#Cc1ccc(Br)cc1)N1CC2(CCN(C(=O)c3ccc(Cl)cc3)CC2)C1` [Compound C64, 3-(4-bromophenyl)-1-{7-[(4-chlorophenyl)carbonyl]-2,7-diazaspiro[3.5]non-2-yl}prop-2-yn-1-one] fall in the same range of IC50: 0.1 to 0.5 µM for the first, 0.1 to 0.5 µM for the second.

First: O=C(c1ccc(Br)cc1)N1CCC2(CC1)CN(C(=O)c1cc3cc(Br)ccc3[nH]1)C2 [Compound C46, 5-bromoindol-2-yl 7-[(4-bromophenyl)carbonyl]-2,7-diazaspiro[3.5]non-2-yl ketone]
Second: O=C(c1ccc(F)cc1)N1CCC2(CC1)CN(C(=O)c1cc3ccc(Cl)cc3[nH]1)C2 [Compound C55, 6-chloroindol-2-yl 7-[(4-fluorophenyl)carbonyl]-2,7-diazaspiro[3.5]non-2-yl ketone]
The IC50 of the first is lower: < 0.1 µM for the first, 0.5 to 5 µM for the second.

First: O=C(/C=C/c1ccc(Br)cc1)N1CCC2(CC1)CN(Cc1c(Cl)cccc1Cl)C2 [Compound C11, (2E)-1-{2-[(2,6-dichlorophenyl)methyl]-2,7-diazaspiro[3.5]non-7-yl}-3-(4-bromophenyl)prop-2-en-1-one]
Second: O=C(/C=C/c1ccc(Br)cc1)N1CC2(CCN(Cc3ccc(F)c(C(F)(F)F)c3)CC2)C1 [Compound C27, (2E)-3-(4-bromophenyl)-1-(7-{[4-fluoro-3-(trifluoromethyl)phenyl]methyl}-2,7-diazaspiro[3.5]non-2-yl)prop-2-en-1-one]
The IC50 of the first is lower: < 0.1 µM for the first, 0.1 to 0.5 µM for the second.

`COc1ccc(C(=O)N2CC3(CCN(C(=O)C#Cc4ccc(Br)cc4)CC3)C2)cc1` [Compound C74, 3-(4-bromophenyl)-1-{2-[(4-methoxyphenyl)carbonyl]-2,7-diazaspiro[3.5]non-7-yl}prop-2-yn-1-one] and `O=C(C#Cc1ccc(Br)cc1)N1CCC2(CC1)CN(Cc1ccc(C(F)(F)F)cc1)C2` [Compound C73, 3-(4-bromophenyl)-1-(2-{[4-(trifluoromethyl)phenyl]methyl}-2,7-diazaspiro[3.5]non-7-yl)prop-2-yn-1-one] cannot be ordered by IC50: < 0.1 µM for the first, < 0.1 µM for the second.
